Counter-ions that a name gives are not always drawn. Like-named read-outs stand apart in the source and are kept apart here.

Test [1] relates to blood glucose. Description: Reversal of Adrenaline-Exacerbated Glucose Intolerance in Mice. Format: in vivo, CFLP female mice. Particulars: Mus musculus, 2 h, oral gavage, glucose 1 g/kg and adrenaline 300 μg/kg s.c. 30 min later, 0-120 min, vs water dosed control, read-out: % Reduction in area under Blood Glucose curve; for inhibition in vivo at 20 µmol/kg: 20 μmol/kg. Here is the method: (A) Reversal of Adrenaline-Exacerbated Glucose Intolerance in Mice
CFLP female mice of about 25 g were fasted for 24 hours prior to receiving water (10 ml/kg) or compounds by oral gavage. Thirty minutes later, glucose (1 g/kg) and adrenaline (300 μg/kg) were injected subcutaneously. Blood samples for glucose analysis were taken serially from the tail of each mouse at 0, 30, 60 90 and 120 minutes after dosing glucose and the results are expressed below as the percentage reduction in the area under the blood glucose curve; the compound treated groups being compared to the water dosed control group. Six mice were used in each treatment group.

For test [2], the target named is T1, α2 -Adrenoceptor (Homo sapiens, UniProt P08913).
T1 construct: Human platelet membranes; from tissue; host or cells: human platelet membranes
T1 sequence (P08913 1-465): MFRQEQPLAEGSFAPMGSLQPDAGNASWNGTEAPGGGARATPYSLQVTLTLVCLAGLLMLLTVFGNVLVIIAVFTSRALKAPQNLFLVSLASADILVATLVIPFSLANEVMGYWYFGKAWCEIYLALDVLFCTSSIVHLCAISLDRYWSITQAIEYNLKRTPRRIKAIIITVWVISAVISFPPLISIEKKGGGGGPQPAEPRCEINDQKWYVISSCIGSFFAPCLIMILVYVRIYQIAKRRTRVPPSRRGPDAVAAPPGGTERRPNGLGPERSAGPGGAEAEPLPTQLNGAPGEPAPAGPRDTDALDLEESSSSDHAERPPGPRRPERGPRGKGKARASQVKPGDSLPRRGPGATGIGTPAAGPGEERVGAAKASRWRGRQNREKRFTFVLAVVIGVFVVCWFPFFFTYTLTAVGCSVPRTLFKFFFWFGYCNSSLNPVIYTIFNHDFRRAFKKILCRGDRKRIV
Description: α2-Adrenoceptor Binding ([3H] Rauwolscine, human platelet membranes). Here is the method: (B) α2 -Adrenoceptor Binding
Human platelet membranes were incubated with [^3 H] Rauwolscine (0.5-1.0 nM) for 30 minutes at 30° C. with varying concentrates of the drug (0.1-10,000 nM). The binding assay was stopped by filtering and rinsing on GF/B glass fibre filters.

Where [3] appears, read: human platelet membranes, [3H] Rauwolscine 0.5-1.0 nM, 30 minutes at 30° C., read-out: Binding Affinity Ki.

For the molecule `CC1c2ccccc2CN1CC1=NCCN1` (stereo not drawn) [Example 1, 2-[2H-(1-Methyl-1,3-dihydroisoindole)methyl]-4,5-dihydroimidazole], in test [1], the inhibition in vivo at 20 µmol/kg came out at 34%. In test [2], this molecule returned a Ki of 1.7 nM. `CCC1c2ccccc2CN1CC1=NCCN1` (stereo not drawn) [Example 2, 2-[2H-(1-Ethyl-1,3-dihydroisoindole)methyl]-4,5-dihydroimidazole dihydrochloride]: the inhibition in vivo at 20 µmol/kg in test [1] stood at 27%. For the same molecule, the Ki in test [2] (setting [3]) came to 4.1 nM. In the case of `CC1c2ccc(Cl)cc2CN1CC1=NCCN1` (stereo not drawn) [Example 3, 2-[2H-(5-Chloro-1-methyl-1,3-dihydroisoindole)methyl]-4,5-dihydroimidazole dihydrochloride], in test [1] (10 μmol/kg), the inhibition in vivo at 10 µmol/kg was found to be 41%. Moreover, the Ki in test [2] (setting [3]) is 3.4 nM. `CC1c2cc(Cl)ccc2CN1CC1=NCCN1` (stereo not drawn) [Example 4, 2-[2H-(6-Chloro-1-methyl-1,3-dihydroisoindole)methyl]-4,5-dihydroimidazole]: the inhibition in vivo at 20 µmol/kg in test [1] was found to be 27%. For the same molecule, the Ki in test [2] (setting [3]) was 6.4 nM. For `CC1c2ccc(F)cc2CN1CC1=NCCN1` (stereo not drawn) [Example 5, 2[2H-(5-Fluoro-1-methyl-1,3-dihydroisoindole)methyl]-4,5-dihydroimidazole], the inhibition in vivo at 5 µmol/kg in test [1] (5 μmol/kg) is 20%. Besides, the Ki in test [2] (setting [3]) amounted to 0.8 nM. In the case of `Clc1ccc(C2c3ccccc3CN2CC2=NCCN2)cc1` (stereo not drawn) [Example 6, 2-[2H-(1-(4-Chlorophenyl)-1,3-dihydroisoindole)methyl]-4,5-dihydroimidazole], the inhibition in vivo at 20 µmol/kg in test [1] is 15%. Moreover, the inhibition constant Ki in test [2] (setting [3]) turned out to be 3.6 nM.

As for `Clc1cccc(C2c3ccccc3CN2CC2=NCCN2)c1` (stereo not drawn) [Example 7], in test [1], the inhibition in vivo at 20 µmol/kg was 22%. Moreover, the Ki in test [2] (setting [3]) is 1.8 nM. Regarding `Fc1ccc(C2c3ccccc3CN2CC2=NCCN2)cc1` (stereo not drawn) [Example 8, 2-[2H-(1-(4-Fluorophenyl)-1,3-dihydroisoindole)methyl]-4,5-dihydroimidazole], the inhibition in vivo at 20 µmol/kg in test [1] was 21%. Besides, the Ki in test [2] (setting [3]) was determined as 2.7 nM. `c1ccc(C2c3ccccc3CN2CC2=NCCN2)cc1` (stereo not drawn) [Example 9, 2-[2H-(1-Phenyl-1,3-dihydroisoindole)methyl]-4,5-dihydroimidazole]: the inhibition in vivo at 20 µmol/kg in test [1] turned out to be 31%. Moreover, the Ki in test [2] (setting [3]) worked out at 6.9 nM. Regarding `CC(C)C1c2ccccc2CN1CC1=NCCN1` (stereo not drawn) [Example 10, 2-(2H-[1-(1-Methylethyl)-1,3-dihydroisoindole]methyl)-4,5-dihydroimidazole dihydrochloride hemihydrate], the Ki in test [2] (setting [3]) stood at 34 nM. On to `Cc1ccc(C2c3ccccc3CN2CC2=NCCN2)cc1` (stereo not drawn) [Example 11, 2-[2H-(1-(4-Methylphenyl)-1,3-dihydroisoindole)methyl]-4,5-dihydroimidazole], for which the Ki in test [2] (setting [3]) stood at 25 nM. As to `COc1ccc(C2c3ccccc3CN2CC2=NCCN2)cc1` (stereo not drawn) [Example 12, 2-[2H-(1-(4-Methoxyphenyl)-1,3-dihydroisoindole)methyl]-4,5-dihydroimidazole], the inhibition in vivo at 20 µmol/kg in test [1] came out at 34%. In test [2] (setting [3]), the Ki is 2 nM. Taken in the same sequence, the figures for `c1ccc(CC2c3ccccc3CN2CC2=NCCN2)cc1` (stereo not drawn) [Example 13, 2-[2H-(1-Benzyl-1,3-dihydroisoindole)methyl]-4,5-dihydroimidazole] were 16% and 40 nM.

The record behind these values is patent publication US4918083A, “4,5 Dihydroimidazole compounds which have useful pharmaceutical utility” (Beecham Group p.l.c., priority 1986, dated 1990).
